From article PMC8579695, “The Stringent Response Inhibits 70S Ribosome Formation in Staphylococcus aureus by Impeding GTPase-Ribosome Interactions” (mBio, 2021)
Like-named read-outs stand apart in the source and are kept apart here.

Experiments:
[1] = biological target: RsgA (Staphylococcus aureus, UniProt P67682); experiment: DRaCALA binding of 32P-labeled nucleotides to 6×His-tagged RsgA; settings: for Bmax, RsgA: Bmax values indicate the fraction bound
Protocol: (§1) The RA-GTPases RsgA, Era, RbgA, and HflX can bind to the guanosine nucleotides GTP, GDP, ppGpp, and pppGpp. Our previous work observed higher binding affinities for ppGpp over GTP, pointing toward a difference in binding between 5′ di- or triphosphate nucleotides ([27]). […] Furthermore, these previous experiments were performed using recombinant proteins fused to large MBP tags, which could impact binding affinity determination. To examine the nucleotide binding affinities of these RA-GTPases for GDP in comparison to ppGpp, pppGpp, and GTP, and in the absence of a large tag, we used a differential radial capillary action of ligand assay (DRaCALA) with recombinant RsgA, RbgA, Era, and HflX fused to a smaller 6× His tag (Fig. 1B; see also Fig. S2A to C in the supplemental material) ([36]). In each case, the affinities of 5′ diphosphate-containing GDP and ppGpp were similar in the low μM range and were 2- to 6-fold higher than the affinities of either GTP or pppGpp (Table 1).
(§2) Supplementary file : FIG S2 Examination of the binding of GDP, ppGpp, GTP, and pppGpp to RA-GTPases by DRaCALA. (A to C) Determination of binding affinities and Kd values for ^32P-labeled nucleotides to purified recombinant 6×His-tagged RsgA (A), Era (B), and HflX (C). Kd values were determined from the binding curves as previously described ([36]). (D to F) DRaCALA binding assay of recombinant RsgA (D), Era (E), and HflX (F) binding to ^32P-labeled GTP, ppGpp, and pppGpp in the presence or absence of 100 μM cold competitors (GTP, GDP, ppGpp, pppGpp, and ATP). All experiments were carried out in triplicate, with error bars representing standard deviations. Download FIG S2, TIF file, 0.9 MB.
(§3) The synthesis of (p)ppGpp and differential radial capillary action of ligand assay (DRaCALA) binding and competition assays were performed as described previously ([27]), using recombinant, 6×His-tagged protein at the concentrations specified in the figure legends.

[2] = test system: HflX association to the 30S and 50S ribosomal subunits; experiment: In vitro ribosome association assay (sucrose gradient, α-His Western immunoblot), HflX; format: binding, Staphylococcus aureus; settings: 40 μM nucleotide; compared to apo, GTP, or GMPPNP-bound states
Description: (§4) It is well characterized that rRNA transcription decreases during the stringent response ([39]). In addition, the GTPase activity of ribosome assembly cofactors is inhibited by (p)ppGpp, both of which contribute to a reduction in mature ribosomes within the cell ([27]). To examine mechanistically how (p)ppGpp-GTPase interactions affect the ability of RA-GTPases to associate with ribosomal subunits, we examined the association of each GTPase to either the 30S or 50S ribosomal subunit in the presence of GDP, GTP, ppGpp, and pppGpp, as well as GMPPNP, a nonhydrolyzable analogue of GTP. The production and isolation of immature subunits, which can comprise several different immature states, introduces a large degree of heterogeneity, and so here we, and others, use homogenous mature particles as a system to examine the binding event, rather than the role of GTPase activity in downstream maturation ([11], [12], [29], [40], [41]). His-tagged GTPases were preincubated with highly pure, salt-washed 70S S. aureus ribosomes in a low-magnesium buffer to encourage ribosomal subunit dissociation, and the amount of each GTPase associated with each of the subunits was quantified by Western immunoblotting with anti-His antibodies after sucrose gradient separation. […]
(§5) FIG 2 (p)ppGpp and GDP binding reduces RA-GTPase association to the ribosome. […] After subunit separation and precipitation, bound proteins were detected in the 30S fraction using HRP-conjugated α-His antibodies. […] Bound proteins were detected in the 50S fraction using HRP-conjugated α-His antibodies. […]
(§6) A 500 nM concentration of recombinant 6×His-tagged RA-GTPase was incubated at room temperature for 5 min with 200 nM S. aureus 70S ribosomes in dissociation buffer (20 mM Tris [pH 7.5], 120 mM NH4Cl, 1.5 mM MgCl2, 2 mM β-mercaptoethanol) in the apo form and in the presence of 40 μM GTP, GMPPNP, GDP, ppGpp, or pppGpp. […] Gradients were fractionated by upward displacement of 250-μl aliquots, which were analyzed for RNA content at an absorbance of 260 nm. […]

[3] = biological target: Era (Staphylococcus aureus, UniProt Q2FGF6); experiment: DRaCALA binding of 32P-labeled nucleotides to 6×His-tagged Era; settings: for Bmax, Era: Bmax values indicate the fraction bound
Sequence of Era (Q2FGF6 whole entry): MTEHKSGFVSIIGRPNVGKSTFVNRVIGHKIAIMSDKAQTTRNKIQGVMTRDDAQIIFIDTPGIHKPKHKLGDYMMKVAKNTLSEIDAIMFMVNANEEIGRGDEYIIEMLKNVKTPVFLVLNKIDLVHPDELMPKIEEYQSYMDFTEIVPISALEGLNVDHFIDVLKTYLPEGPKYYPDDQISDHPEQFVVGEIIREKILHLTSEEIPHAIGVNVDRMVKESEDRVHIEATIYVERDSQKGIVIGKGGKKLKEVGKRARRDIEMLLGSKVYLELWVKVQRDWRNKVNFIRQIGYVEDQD
Protocol: as §1, §2, §3

[4] = biological target: Era association to the 30S ribosomal subunit (Staphylococcus aureus, UniProt Q2FGF6); experiment: In vitro ribosome association assay (sucrose gradient, α-His Western immunoblot), Era; format: binding; settings: 40 μM nucleotide; compared to apo, GTP, or GMPPNP-bound states
Sequence of Era association to the 30S ribosomal subunit (Q2FGF6 whole entry): as above
Description: as §4, §5, §6

[5] = biological target: HflX (Staphylococcus aureus, UniProt Q2FYY9); experiment: DRaCALA binding of 32P-labeled nucleotides to 6×His-tagged HflX; settings: mean ± SEM; for Bmax, HflX: Bmax values indicate the fraction bound
Sequence of HflX (Q2FYY9 entry or part of it): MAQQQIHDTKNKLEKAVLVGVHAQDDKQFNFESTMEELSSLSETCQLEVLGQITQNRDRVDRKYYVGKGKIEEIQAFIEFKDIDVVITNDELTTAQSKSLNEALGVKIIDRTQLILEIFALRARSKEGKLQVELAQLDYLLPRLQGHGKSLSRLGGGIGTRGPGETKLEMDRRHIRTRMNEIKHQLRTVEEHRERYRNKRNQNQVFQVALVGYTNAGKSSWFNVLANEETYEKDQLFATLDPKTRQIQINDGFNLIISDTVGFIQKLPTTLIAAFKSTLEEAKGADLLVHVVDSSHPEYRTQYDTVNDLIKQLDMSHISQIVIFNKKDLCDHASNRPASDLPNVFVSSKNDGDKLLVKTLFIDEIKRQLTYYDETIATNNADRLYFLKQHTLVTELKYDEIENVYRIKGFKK
Protocol: as §1, §2, §3

Sequence of RsgA (P67682 whole entry, the tested form may be a part): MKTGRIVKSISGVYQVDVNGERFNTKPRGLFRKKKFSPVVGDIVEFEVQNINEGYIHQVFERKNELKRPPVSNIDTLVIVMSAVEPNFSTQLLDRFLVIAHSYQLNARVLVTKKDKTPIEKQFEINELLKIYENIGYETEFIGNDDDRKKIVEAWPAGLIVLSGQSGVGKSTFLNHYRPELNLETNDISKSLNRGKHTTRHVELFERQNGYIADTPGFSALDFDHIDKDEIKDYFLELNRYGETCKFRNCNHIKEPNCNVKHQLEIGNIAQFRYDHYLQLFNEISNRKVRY

Row | Compound | Kd ([1]; mean ± SEM, 32P-labeled nucleotide, 6×His-tagged protein, read-out: Kd, RsgA) [µM] | Bmax, RsgA ([1]; mean ± SEM) | reduction in ribosome binding of HflX [2] [fold] | Kd ([3]; mean ± SEM, 32P-labeled nucleotide, 6×His-tagged protein, read-out: Kd, Era) [µM] | Bmax, Era ([3]; mean ± SEM) | reduction in ribosome binding of Era [4] [fold] | Kd ([5]; 32P-labeled nucleotide, 6×His-tagged protein, read-out: Kd, HflX) [µM] | Bmax, HflX [5] | Kd [1] [µM] | Kd [3] [µM]
1 | Nc1nc2c(ncn2[C@@H]2O[C@H](COP(=O)(O)OP(=O)(O)O)[C@@H](OP(=O)(O)OP(=O)(O)O)[C@H]2O)c(=O)[nH]1 [ppGpp] | 2.2 ± 0.2 | 0.9 ± 0.0 | 2 | 4.2 ± 0.6 | 0.4 ± 0.0 | 2 | 3.4 ± 0.4 | 0.6 ± 0.0 | – | –
2 | Nc1nc2c(ncn2[C@@H]2O[C@H](COP(=O)(O)OP(=O)(O)OP(=O)(O)O)[C@@H](OP(=O)(O)OP(=O)(O)O)[C@H]2O)c(=O)[nH]1 [pppGpp] | – | 0.4 ± 0.0 | 2 | – | 0.2 ± 0.0 | 2 | – | 0.5 ± 0.2 | 10.1 ± 2.2 | 13.9 ± 4.7
